The structures appear in SMILES notation. Where two headings read alike, the source gives them in different places. Some results are limits rather than exact numbers.

The record followed here is patent publication US20240124467A1, “FUSED PYRIMIDINE COMPOUNDS AS INHIBITORS OF MENIN-MLL INTERACTION” (Biomea Fusion, Inc., priority 2020, published 2024).

Common to all, as to format: cell-based
In one assay the test system is K-562. In words: Cell proliferation inhibition (CellTiter-Glo), K-562 cells. The settings on record: Homo sapiens, K-562 (BCR-ABL), Table 3. In outline: (§1)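 Leukemia lines in RPMI-1640/10% FBS at 37° C. were exposed in duplicate to seven compound concentrations (5.00×10^−6 to 6.86×10^−9 M), with 0.2% DMSO as 100% proliferation. At day 4 cells were diluted 1:4 in fresh medium containing compound. Viability was read by CellTiter-Glo luminescence at day 4 and day 7.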
Background: ATP-based viability assays read luminescence as a measure of living cells.

The subject of a further assay is U-937. The experiment in a line: Cell proliferation inhibition (CellTiter-Glo), U-937 cells. The note with it: Homo sapiens, U-937 (MLL-wt), Table 3. As for the experimental part:
(§2) The present example evaluates the ability of compounds described herein, inhibitors of Menin/MLL interaction, to inhibit cell proliferation. The proliferation inhibitory effect was investigated in human MLL-leukemia cells selected on the bases of MLL fusion proteins and listed in the table below.
(§3) ATP is present in all metabolically active cells and is considered as a marker for cell viability and proliferation. The metabolic cell activity was determined using the CellTiter-Glo kit from Promega, an ATP monitoring system based on the production of luminescence by the reaction of ATP with added UltraGlo® recombinant luciferase (Kawano et al., 2016, PLOS One, 8:11(7):e0158888), according to the supplier's experimental recommendations. The assay is based on a 96 well plate format. All experiments were carried out in duplicate in one test occasion.
(§4) Test items were dissolved at 20 mM in DMSO with purity ≥99.9% (Sigma catalog no. D8418) and stored at −20° C. Cells were maintained in RPMI-1640 medium (Invitrogen catalog no. 618700) supplemented with 10% of Heat Inactivated FBS (Invitrogen catalog no. 10500) and 1% Pen-Strep (Invitrogen catalog no. 15140) and cultured at 37° C. in a humidified incubator with 5% CO2. Cell lines were grown in suspension and the cell density was maintained in a range of 5×10^4-1×10^6 viable cells/ml where possible. Cells were pelleted at 130 g×5 min.
(§5) Serial dilutions of compounds 1 to 3 in DMSO 100% were prepared starting from a 2.5 mM solutions (prepared by diluting 1:8 the 20 mM stock solution) to generate a 7 point concentration response curve (CRC). Seven concentrations of test compounds (e.g., 5.00×10^−6-1.67×10^−6-5.56×10^−7-1.85×10^−7-6.17×10^−8-2.06×10^−8-6.86×10^−9 M) were assessed in duplicate in an individual test occasion in parallel in the selected cell lines. KO-539 was used as a reference compound and tested in duplicate at seven similar concentrations. 100% of proliferation was represented by the untreated cells (0.2% DMSO).
(§6) Cell proliferation inhibition was monitored at both the following end points: Day 4 (T4) and Day 7 (T7). For the appropriate cell density during the exponential cell growth and re-supply with fresh compound solution at T4, cells were diluted (1:4) with fresh medium containing the compound concentration (1×).
(§7) For each plate to test, one 0.4 μL copy plate and four 0.3 μL copy plates were stamped into 96-well plates not treated for cell adhesion (Sarstedt—cat. no. 82.1581.001) by acoustic liquid handling (Echo) at a concentration which was 500 fold the final assay concentration. Stamped plates were stored at −20° C.
(§8) On Day 0, the day of the experiment cell line suspensions were counted by Cell Viability Analyser, Vi-CELL (Beckman Coulter AY15292), and diluted with fresh medium to obtain the following cell densities: K-562 500 c/ml, MOLM-13 1,000 c/ml, MV4-11 10,000 c/ml, OCI-AML-3 500 c/ml, and U-937 500-1,000 c/ml. 200 μL/well and 150 μL/well of cell suspension were added into the 0.4 μL/well and 0.3 μL/well compound plates, respectively. Cell plate containing 200 μL/well suspension were incubated at 37° C. in a humidified incubator with 5% CO2. From each well of the 150 μL/well cell assay plate, 100 μL were harvested and transferred into a 96-well Optiplate (Perkin Elmer, cat. no. 6005290). Cell viability was measured as described below.
(§9) On Day 4, 150p/well of fresh medium was added into a new 0.3 μL/well copy compound plates. From each well of the 200 μL/well cell assay plate, 100 μL was sampled for the cell viability measurement as described below. 50p was harvested and added to the 150p/well compound plate prepared as described in the first point to dilute 1:4 the cell suspension. The cell assay plate diluted and containing 200 μL/well suspension was incubated at 37° C. in a humidified incubator with 5% CO2.
(§10) On Day 4, 150p/well of fresh medium was added into a new 0.3 μL/well copy compound plates. […]

The next assay deals with OCI-AML3. In words: Cell proliferation inhibition (CellTiter-Glo), OCI-AML3 cells. The note with it: Homo sapiens. As for the experimental part: as §2, §3, §4, §5, §6, §7, §8, §9, §10
Another assay concerns MV4-11. The experiment in a line: Cell proliferation inhibition (CellTiter-Glo), MV4-11 cells. The settings on record: Homo sapiens, MV4-11 (MLL-AF4), Table 3. In outline: as §1
The subject of a further assay is MOLM-13. In words: Cell proliferation inhibition (CellTiter-Glo), MOLM-13 cells. The note with it: Homo sapiens, MOLM-13 (MLL-AF9), Table 3. In outline: as §1
Setting [1] is: K562, 96 h, 4 d, read-out: K-562 IC50 μM 4 d.
[2] abbreviates: K562, 168 h, 7 d, read-out: K-562 IC50 μM 7 d.
The mark [3] stands for this setting: 96 h, 4 d, read-out: U-937 IC50 μM 4 d.
[4] abbreviates: 168 h, 7 d, read-out: U-937 IC50 μM 7 d.
Where [5] appears, read: OCI-AML-3, 96 h, 4 d, Table 3, read-out: OCI-AML3 IC50 μM 4 d.
[6] abbreviates: OCI-AML-3, 168 h, 7 d, Table 3, read-out: OCI-AML3 IC50 μM 7 d.
Where [7] appears, read: 96 h, 4 d, read-out: MV4-11 IC50 μM 4 d.
Setting [8] is: 168 h, 7 d, read-out: MV4-11 IC50 μM 7 d.
[9] abbreviates: 96 h, 4 d, read-out: MOLM13 μM 4 d.
Setting [10] is: 168 h, 7 d, read-out: MOLM13 μM 7 d.

As for `C=CC(=O)Nc1ccc(CC(=O)Nc2ccc(-c3cc4c(N5CCOCC5)ncnc4[nH]3)cc2)nc1` [Compound B0700-314, N-(6-(2-((4-(4-morpholino-7H-pyrrolo[2,3-d]pyrimidin-6-yl)phenyl)amino)-2-oxoethyl)pyridin-3-yl)acrylamide], the IC50 in the assay on K-562 (setting [1]) came out at 0.55 µM; in the assay with K-562 (setting [2]) it was 0.468 µM; with U-937 (setting [3]), 0.288 µM; in the assay with U-937 (setting [4]) it was 0.158 µM; with OCI-AML3 (setting [5]) it was 0.145 µM; in the assay with OCI-AML3 (setting [6]) it was 0.095 µM. Further, the IC50 turned out to be 0.145 µM with MV4-11 (setting [7]), 0.129 µM in the assay on MV4-11 (setting [8]), 0.191 µM in the assay on MOLM-13 (setting [9]) and 0.178 µM in the assay with MOLM-13 (setting [10]).
In the case of `C=CC(=O)Nc1ccc(CC(=O)NC2CCN(c3nc4c(N5CCOCC5)ncnc4[nH]3)CC2)cc1` [Compound B0700-315, N-(4-(2-((1-(6-morpholino-9H-purin-8-yl)piperidin-4-yl)amino)-2-oxoethyl)phenyl)acrylamide], the IC50 in the assay with K-562 (setting [1]), with K-562 (setting [2]), with U-937 (setting [3]), in the assay on U-937 (setting [4]), in the assay on OCI-AML3 (setting [5]) and in the assay on OCI-AML3 (setting [6]) was more than 5 µM each time. In addition, the IC50 in the assay with MV4-11 (setting [7]), with MV4-11 (setting [8]), in the assay on MOLM-13 (setting [9]) and with MOLM-13 (setting [10]) was more than 5 µM throughout.
Consider `C=CC(=O)N1CC(N2CCC(NC(=O)Nc3ccc(-c4cc5c(N6CCOCC6)ncnc5[nH]4)cc3)CC2)C1` [Compound B0700-330, 1-(1-(1-acryloylazetidin-3-yl)piperidin-4-yl)-3-(4-(4-morpholino-7H-pyrrolo[2,3-d]pyrimidin-6-yl)phenyl)urea], for which the IC50 is 4.68 µM with K-562 (setting [1]); 1 µM in the assay with K-562 (setting [2]); 1.62 µM with U-937 (setting [3]); 1.05 µM in the assay with U-937 (setting [4]); 1.05 µM in the assay on OCI-AML3 (setting [5]); 0.813 µM with OCI-AML3 (setting [6]). For the same molecule, the IC50 with MV4-11 (setting [7]) is 0.646 µM; in the assay with MV4-11 (setting [8]) it was 0.38 µM; with MOLM-13 (setting [9]), 0.631 µM; in the assay with MOLM-13 (setting [10]) it was 0.447 µM.
Regarding `C=CC(=O)N1CC(N2CCC(CC(=O)Nc3ccc(-c4cc5c(N6CCOCC6)ncnc5[nH]4)cc3)CC2)C1` [Compound B0700-331, 2-(1-(1-acryloylazetidin-3-yl)piperidin-4-yl)-N-(4-(4-morpholino-7H-pyrrolo[2,3-d]pyrimidin-6-yl)phenyl)acetamide], the IC50 in the assay with K-562 (setting [1]) came to 0.676 µM; with K-562 (setting [2]), 0.129 µM; with U-937 (setting [3]), 0.347 µM; in the assay with U-937 (setting [4]), 0.065 µM; with OCI-AML3 (setting [5]) it was 0.251 µM; in the assay with OCI-AML3 (setting [6]) it was 0.115 µM. Besides, the IC50 amounted to 0.047 µM in the assay with MV4-11 (setting [7]), 0.034 µM in the assay on MV4-11 (setting [8]), 0.055 µM with MOLM-13 (setting [9]) and 0.03 µM in the assay with MOLM-13 (setting [10]).
For the molecule `C=CC(=O)N1CC(N2CCC[C@H](NC(=O)Nc3ccc(-c4cc5c(N6CCOCC6)ncnc5[nH]4)cc3)C2)C1` [Compound B0700-332, (S)-1-(1-(1-acryloylazetidin-3-yl)piperidin-3-yl)-3-(4-(4-morpholino-7H-pyrrolo[2,3-d]pyrimidin-6-yl)phenyl)urea], the IC50 in the assay with K-562 (setting [1]) came out at 1.86 µM; in the assay on K-562 (setting [2]) it was 1.66 µM; in the assay on U-937 (setting [3]) it was 1.2 µM; in the assay on U-937 (setting [4]), 0.457 µM; in the assay with OCI-AML3 (setting [5]), 0.955 µM; with OCI-AML3 (setting [6]), 0.24 µM. Further, the IC50 is 0.38 µM in the assay on MV4-11 (setting [7]), 0.151 µM with MV4-11 (setting [8]), 0.324 µM in the assay on MOLM-13 (setting [9]) and 0.316 µM in the assay on MOLM-13 (setting [10]).
